What was measured:
[1] = system: Pseudomonas aeruginosa clinical isolate (S-2838 strain); assay: Mouse model with urinary tract infection by multidrug-resistant Pseudomonas aeruginosa; type: in vivo; details: female ICR mice, S-2838 strain via urethra, 12.5 mg/kg
Method: The mice used were female ICR SPF mice (5 weeks old: 5 individuals per group).
(§1) To prepare a bacterial inoculum solution, a Pseudomonas aeruginosa clinical isolate (S-2838 strain) was suspended in sterile saline.
Infection was induced by the inoculation of 0.2 mL of the inoculum solution (approximately 10^3 CFU/mouse) through the urethra of each mouse. […] The numbers of bacterial colonies of the next day of the infection in the kidneys were recorded, and an average thereof was calculated.

[2] = system: Pseudomonas aeruginosa clinical isolate (S-2838 strain); assay: Mouse model with pulmonary infection by multidrug-resistant Pseudomonas aeruginosa; type: in vivo; details: cyclophosphamide-treated male ICR mice, S-2838 strain intranasal, 25 mg/kg
Method: The mice used were male ICR SPF mice (4.5 weeks old at the time of infection: 5 individuals per group). In order to achieve a transient compromised state, cyclophosphamide was intraperitoneally administered at a dose of 200 mg/kg to each mouse 4 days before injection.
as §1
Infection was induced by the inoculation of 0.05 mL of the inoculum solution (approximately 10^5 CFU/mouse) to each mouse intranasally. […] The numbers of bacterial colonies of the next day of the infection in the lungs were recorded, and an average thereof was calculated.

[3] = system: multidrug-resistant Pseudomonas aeruginosa clinical isolate (S-2838 strain); assay: Defense against mouse systemic infection using multidrug-resistant Pseudomonas aeruginosa; type: in vivo; details: male ICR mice, S-2838 strain i.p., 25 mg/kg
Method: The mice used were male ICR SPF mice (4 weeks old: 5 individuals per group).
To prepare a bacterial inoculum solution, a multidrug-resistant Pseudomonas aeruginosa clinical isolate (S-2838 strain) cultured overnight at 37° C. on a Mueller-Hinton agar plate was cultured for 5 hours in a cation-adjusted Mueller-Hinton medium and then diluted 10-fold with a 10% mucin/phosphate buffer solution to prepare the inoculum solution.
Infection was induced by the intraperitoneal inoculation of 0.5 mL of the inoculum solution (approximately 10^6 CFU/mouse) to each mouse. […] Three days after the infection, the number of survivors was recorded.

[4] = Solubility test in 10% CD or CD derivative solution; type: physicochemical; details: thermodynamic from solid, room temperature
Method: To 5 mL of a 10% CD or CD derivative solution, about 100 mg of Compound A monohydrate was added, and stirred at room temperature for 24 hours. To the solutions in which αCD, HPαCD, DMβCD and methyl-β-cyclodextrin were used, about 100 mg of Compound A monohydrate was added after 6 hours. After centrifugation (3000 rpm, 10 minutes), the supernatant was filtered with a filter, and the solubility was measured by the HPLC method.

CNC(=O)[C@@](C)(C(=O)NO)N(C)C(=O)c1ccc(C#Cc2ccc([C@H](O)CO)cc2)cc1 [Compound A, (2S)-2-((4-((4-((1S)-1,2-dihydroxyethyl)phenyl)ethynyl)benzoyl)(methyl)amino)-N-hydroxy-N′,2-dimethylmalonamide]
decrease in the intrarenal viable cell count compared to the control group [1]: ≥ 2 log CFU/kidney
decrease in the intrapulmonary viable cell count compared to the control group [2]: ≥ 2 log CFU/lung
mice surviving 3 days after the bacterial inoculation [3]: ≥ 60%

CNC(=O)[C@@](C)(C(=O)NO)N(C)C(=O)c1ccc(C#Cc2ccc([C@H](O)CO)cc2)cc1 [Compound A monohydrate, (2S)-2-((4-((4-((1S)-1,2-dihydroxyethyl)phenyl)ethynyl)benzoyl)(methyl)amino)-N-hydroxy-N′,2-dimethylmalonamide]
solubility at 24 h ([4]; 10% DMβCD solution, aqueous with cosolvent or surfactant or cyclodextrin, 10% DM β CD solution): 16.6 mg/mL
solubility at 24 h ([4]; 10% HPαCD solution, aqueous with cosolvent or surfactant or cyclodextrin, 10% HP α CD solution): 25.7 mg/mL
solubility at 24 h ([4]; 10% HPβCD solution, aqueous with cosolvent or surfactant or cyclodextrin, 10% HP β CD solution): 11.6 mg/mL
solubility at 24 h ([4]; 10% HPγCD solution, aqueous with cosolvent or surfactant or cyclodextrin, 10% HP γ CD solution): 8.8 mg/mL
solubility at 24 h ([4]; 10% SBEβCD solution, aqueous with cosolvent or surfactant or cyclodextrin, 10% SBE β CD solution): 8.9 mg/mL
solubility at 24 h ([4]; 10% αCD solution, aqueous with cosolvent or surfactant or cyclodextrin, 10% α CD solution): 30.2 mg/mL
solubility at 24 h ([4]; 10% βCD solution, aqueous with cosolvent or surfactant or cyclodextrin, 10% β CD solution): 5.9 mg/mL
solubility at 24 h ([4]; 10% γCD solution, aqueous with cosolvent or surfactant or cyclodextrin, 10% γ CD solution): 14.4 mg/mL
solubility at 24 h ([4]; aqueous with cosolvent or surfactant or cyclodextrin, 10% 2,3,6-Tri-O-methyl-β-cyclodextrin solution): 4.7 mg/mL
solubility at 24 h ([4]; aqueous with cosolvent or surfactant or cyclodextrin, 10% 6-O-α-maltosyl-β-cyclodextrin solution): 10 mg/mL
solubility at 24 h ([4]; aqueous with cosolvent or surfactant or cyclodextrin, 10% Hydroxyethyl-β-cyclodextrin solution): 11.9 mg/mL
solubility at 24 h ([4]; aqueous with cosolvent or surfactant or cyclodextrin, 10% Methyl-β-cyclodextrin solution): 17.5 mg/mL
solubility at 24 h ([4]; water, None (no CD or CD derivative)): 0.2 mg/mL

— patent US10149911B2, “Pharmaceutical composition containing hydroxamic acid derivative or salt thereof” (TOYAMA CHEMICAL CO., LTD., priority 2014, dated 2018)
